{"source": "ChEMBL document CHEMBL3045980", "about": "“Chemistry of insect antifeedants from Azadirachta indica (part 11): Characterisation and structure activity relationships of some novel rearranged azadirachtins” (1991)", "key": {"Spodoptera littoralis [1]": {"system": "Spodoptera littoralis", "assay": "Antifeedant activity against final stadium larval stage of Spodoptera littoralis in compound pretreated glass fibre disks assessed as mass of disks eaten at 10 ppm by choice bioassay", "assay_type": "functional"}, "Spodoptera littoralis [2]": {"system": "Spodoptera littoralis", "assay": "Antifeedant activity against final stadium larval stage of Spodoptera littoralis in compound pretreated glass fibre disks assessed as mass of disks eaten at 1 ppm by choice bioassay", "assay_type": "functional"}}}
{"smiles": "C/C=C(\\C)C(=O)O[C@H]1C[C@@H](OC(C)=O)[C@@]2(C(=O)OC)CO[C@H]3[C@@H](O)[C@@](C)([C@]45O[C@@]4(C)[C@H]4C[C@@H]5O[C@@H]5OCC[C@@]54O)[C@@H]4[C@@](OC)(C(=O)OC)OC[C@@]14[C@@H]32", "values": [{"measurement": "AFI", "setting": "Spodoptera littoralis [1]", "value": 100, "unit": "%"}, {"measurement": "AFI", "setting": "Spodoptera littoralis [2]", "value": 100, "unit": "%"}]}
{"smiles": "C/C=C(\\C)C(=O)O[C@H]1C[C@@H](OC(C)=O)[C@@]2(C(=O)OC)CO[C@H]3C(=O)[C@@](C)([C@]45O[C@@]4(C)[C@H]4C[C@@H]5OC(=O)OCCC4=O)[C@@H]4[C@@](OC)(C(=O)OC)OC[C@@]14[C@@H]32", "values": [{"measurement": "AFI", "setting": "Spodoptera littoralis [1]", "value": 63, "unit": "%"}, {"measurement": "AFI", "setting": "Spodoptera littoralis [2]", "value": 61, "unit": "%"}]}
{"smiles": "C/C=C(\\C)C(=O)O[C@H]1C[C@@H](OC(C)=O)[C@@]2(C(=O)OC)CO[C@H]3[C@@H](O)[C@@](C)([C@]45O[C@@]4(C)[C@@H]4C[C@H]5O[C@@H]5OC=C[C@@]54O)[C@H]4[C@]1(CO[C@]4(O)C(=O)OC)[C@@H]32", "note": "[AZADIRACHTIN A]", "values": [{"measurement": "AFI", "setting": "Spodoptera littoralis [1]", "value": 100, "unit": "%"}, {"measurement": "AFI", "setting": "Spodoptera littoralis [2]", "value": 99, "unit": "%"}]}
{"smiles": "C/C=C(\\C)C(=O)O[C@H]1C[C@@H](OC(C)=O)[C@@]2(C(=O)OC)CO[C@H]3[C@H]4O[C@]5(C)[C@H](C6=CCOC6=O)C[C@H](O)[C@]5(O)[C@@]4(C)[C@H]4[C@]1(CO[C@]4(O)C(=O)OC)[C@@H]32", "values": [{"measurement": "AFI", "setting": "Spodoptera littoralis [1]", "value": 64, "unit": "%"}, {"measurement": "AFI", "setting": "Spodoptera littoralis [2]", "value": 41, "unit": "%"}]}
{"smiles": "C/C=C(\\C)C(=O)O[C@H]1C[C@@H](O)[C@@]23CO[C@@H]4[C@@H](O)[C@]5(C)[C@@H]([C@]1(COC2=O)[C@@H]43)[C@](O)(C(=O)OC)O[C@@]51[C@H]2C[C@H]3[C@]4(C=CO[C@H]4O2)O[C@]31C", "values": [{"measurement": "AFI", "setting": "Spodoptera littoralis [1]", "value": 16, "unit": "%"}, {"measurement": "AFI", "setting": "Spodoptera littoralis [2]", "value": 22, "unit": "%"}]}
{"smiles": "C/C=C(\\C)C(=O)O[C@H]1C[C@@H](OC(C)=O)[C@@]2(C(=O)OC)CO[C@@H]3[C@@H]2[C@]12CO[C@](OC)(C(=O)OC)[C@H]2[C@](C)([C@]12O[C@@]1(C)[C@H]1C[C@@H]2O[C@@H]2OCC[C@@]21O)[C@H]3O", "values": [{"measurement": "AFI", "setting": "Spodoptera littoralis [1]", "value": 46, "unit": "%"}, {"measurement": "AFI", "setting": "Spodoptera littoralis [2]", "value": 35, "unit": "%"}]}
{"smiles": "C/C=C(\\C)C(=O)O[C@H]1C[C@@H](OC(C)=O)[C@@]2(C(=O)OC)CO[C@H]3[C@@H](O)[C@@](C)([C@]45O[C@@]4(C)[C@H]4C[C@@H]5O[C@@H]5OCC[C@@]54OC)[C@@H]4[C@@](OC)(C(=O)OC)OC[C@@]14[C@@H]32", "values": [{"measurement": "AFI", "setting": "Spodoptera littoralis [1]", "value": 95, "unit": "%"}, {"measurement": "AFI", "setting": "Spodoptera littoralis [2]", "value": 66, "unit": "%"}]}
{"smiles": "C/C=C(\\C)C(=O)O[C@H]1C[C@@H](OC(C)=O)[C@@]2(C(=O)OC)CO[C@H]3C(=O)[C@@](C)([C@]45O[C@@]4(C)[C@H]4C[C@@H]5O[C@@H]5OCC[C@@]54O)[C@@H]4[C@@](OC)(C(=O)OC)OC[C@@]14[C@@H]32", "values": [{"measurement": "AFI", "setting": "Spodoptera littoralis [1]", "value": 100, "unit": "%"}, {"measurement": "AFI", "setting": "Spodoptera littoralis [2]", "value": 26, "unit": "%"}]}
{"smiles": "CCC(C)C(=O)O[C@H]1C[C@@H](OC(C)=O)[C@@]2(C(=O)OC)CO[C@H]3[C@@H](O)[C@@](C)([C@]45O[C@@]4(C)[C@H]4C[C@@H]5O[C@@H]5OCC[C@@]54O)[C@@H]4[C@@](OC)(C(=O)OC)OC[C@@]14[C@@H]32", "note": "(some centres undefined)", "values": [{"measurement": "AFI", "setting": "Spodoptera littoralis [1]", "value": 100, "unit": "%"}, {"measurement": "AFI", "setting": "Spodoptera littoralis [2]", "value": 98, "unit": "%"}]}
{"smiles": "C/C=C(\\C)C(=O)O[C@H]1C[C@@H](OC(C)=O)[C@@]2(C(=O)OC)CO[C@H]3C(=O)[C@@](C)([C@]45O[C@@]4(C)[C@H]4C[C@@H]5O[C@@H]5OCC[C@@]54OC)[C@@H]4[C@@](OC)(C(=O)OC)OC[C@@]14[C@@H]32", "values": [{"measurement": "AFI", "setting": "Spodoptera littoralis [1]", "value": 100, "unit": "%"}, {"measurement": "AFI", "setting": "Spodoptera littoralis [2]", "value": 29, "unit": "%"}]}
{"smiles": "C/C=C(\\C)C(=O)O[C@H]1C[C@@H](OC(C)=O)[C@@]2(C(=O)OC)CO[C@H]3C(=O)[C@@](C)([C@]45O[C@@]4(C)[C@H]4C[C@@H]5O[C@@H]5OC=C[C@@]54O)[C@H]4[C@]1(CO[C@]4(O)C(=O)OC)[C@@H]32", "note": "[7-KETOAZADIRACHTIN]", "values": [{"measurement": "AFI", "setting": "Spodoptera littoralis [1]", "value": 23, "unit": "%"}, {"measurement": "AFI", "setting": "Spodoptera littoralis [2]", "value": 21, "unit": "%"}]}
{"smiles": "C/C=C(\\C)C(=O)O[C@H]1C[C@@H](OC(C)=O)[C@@]2(C(=O)OC)CO[C@@H]3[C@@H]2[C@]12CO[C@](OC)(C(=O)OC)[C@H]2[C@@]1(C)[C@@]32O[C@H]3C[C@@H]([C@@]4(OC)CCO[C@@H]4OC)[C@@](C)(O2)[C@]31O", "values": [{"measurement": "AFI", "setting": "Spodoptera littoralis [1]", "value": 31, "unit": "%"}, {"measurement": "AFI", "setting": "Spodoptera littoralis [2]", "value": 33, "unit": "%"}]}
